Assay results reported in EPA's ToxRefDB 2.

How the values were obtained:
[1] = test system: rat; conditions: Carcinogenicity; fischer; Oral; Feed; dose end: 103 week; group: systemic; systemic / in life observation / body weight / body weight
[2] = test system: rat; conditions: Subchronic oral toxicity in rodents, fischer, Feed, dose end: 13 week, group: systemic
[3] = test system: mouse; conditions: Subchronic oral toxicity in rodents, b6c3f1, Feed, dose end: 13 week, group: systemic
[4] = test system: mouse; conditions: Carcinogenicity, b6c3f1, Oral, Feed, dose end: 103 week, group: systemic
[5] = test system: mouse; conditions: Sub-acute repeat dose toxicity, b6c3f1, Oral, Feed, dose end: 14 day, group: systemic
[6] = test system: rat; conditions: Sub-acute repeat dose toxicity, fischer, Oral, Feed, dose end: 14 day, group: systemic
[7] = test system: mouse; conditions: Carcinogenicity, other, Oral, Feed, dose end: 26 month, group: systemic
[8] = test system: mouse; conditions: Carcinogenicity, b6c3f1, Oral, Feed, dose end: 24 month, group: systemic
[9] = test system: rat; conditions: Subchronic oral toxicity in rodents, wistar, Feed, dose end: 90 day, group: systemic
[10] = test system: rat; conditions: Prenatal developmental toxicity study, wistar, Dermal, Topical, dose end: 15 GD
[11] = test system: rat; conditions: Combined chronic toxicity/carcinogenicity; wistar; Oral; Feed; dose end: 24 month; group: systemic; systemic / in life observation / body weight / body weight + systemic / in life observation / body weight / body weight gain + systemic / …
[12] = test system: rabbit; conditions: Prenatal developmental toxicity study, himalayan, Oral, Gavage/Intubation, dose end: 18 GD
[13] = test system: dog; conditions: Subchronic oral toxicity in nonrodent, beagle, Feed, dose end: 13 week, group: systemic, systemic / organ weight / liver / absolute + systemic / organ weight / liver / relative to body weight + systemic / pathology microscopic / …
[14] = test system: rat; conditions: Prenatal developmental toxicity study, wistar, Oral, Gavage/Intubation, dose end: 15 GD
[15] = test system: dog; conditions: Chronic toxicity; beagle; Oral; Feed; dose end: 52 week; group: systemic; systemic / clinical chemistry / albumin / albumin + systemic / clinical chemistry / triglycerides / triglycerides + systemic / pathology …
[16] = test system: mouse; conditions: Carcinogenicity; cd1; Oral; Feed; dose end: 18 month; group: systemic; systemic / organ weight / liver / nos + systemic / pathology microscopic / liver / deformity + systemic / pathology microscopic / liver / …
[17] = test system: dog; conditions: Chronic toxicity, beagle, Oral, Feed, dose end: 26 week, group: systemic
[18] = test system: rat; conditions: Multigenerational reproductive toxicity study, other, Oral, Feed, dose end: 2 generation
[19] = test system: mouse; conditions: Carcinogenicity; cd1; Oral; Feed; dose end: 18 month; group: systemic; systemic / pathology microscopic / liver / hypertrophy
[20] = test system: mouse; conditions: Subchronic oral toxicity in rodents, cd1, Feed, dose end: 90 day, group: systemic, systemic / organ weight / liver / absolute + systemic / organ weight / liver / relative to body weight + systemic / organ weight / liver / …
[21] = test system: rat; conditions: Combined chronic toxicity/carcinogenicity, sprague dawley, Oral, Feed, dose end: 104 week, group: systemic
[22] = test system: dog; conditions: Chronic toxicity, beagle, Oral, Feed, dose end: 52 week, group: systemic
[23] = test system: rat; conditions: Developmental neurotoxicity study; long evans; Injection; Subcutaneous; dose end: 90 PND; group: cannot be grouped; reproductive / reproductive performance / sex ratio / sex ratio (% male)
[24] = systemic / in life observation / body weight / body weight gain
[25] = systemic / in life observation / body weight / body weight gain + systemic / in life observation / body weight / body weight
[26] = systemic / in life observation / body weight / body weight
[27] = systemic / in life observation / body weight / body weight + systemic / pathology microscopic / liver / adenoma/carcinoma combined + …
[28] = systemic / in life observation / body weight / body weight + systemic / in life observation / food consumption / food consumption + systemic…
[29] = systemic / in life observation / body weight / body weight gain + systemic / in life observation / food consumption / food consumption + …
[30] = systemic / pathology gross / skin / desiccation + systemic / pathology microscopic / ear / hyperkeratosis + systemic / pathology microscopic…
[31] = systemic / pathology microscopic / adrenal gland / hyperplasia + systemic / clinical chemistry / bilirubin / total bilirubin
[32] = systemic / clinical chemistry / cytochrome p450, nos / cytochrome p450, nos + systemic / pathology microscopic / esophagus / hyperkeratosis…
[33] = group: developmental, developmental / developmental malformation / bone / incomplete ossification + developmental / developmental malformation / bone / unossified
[34] = group: maternal, systemic / in life observation / clinical signs / erythema + systemic / pathology gross / skin / [other]
[35] = group: maternal, systemic / in life observation / clinical signs / erythema + systemic / pathology gross / skin / [other] + systemic / pathology gross / skin…
[36] = group: developmental, developmental / developmental malformation / bone / [other] + developmental / developmental malformation / bone / absent + developmental / …
[37] = group: maternal, systemic / in life observation / body weight / body weight gain + systemic / in life observation / clinical signs / anal prolapse + systemic…
[38] = group: developmental, developmental / developmental malformation / bone / incomplete ossification + developmental / developmental malformation / bone / unossified…
[39] = group: maternal, systemic / in life observation / body weight / body weight + systemic / in life observation / body weight / body weight gain + systemic / in…
[40] = systemic / pathology microscopic / prostate / atrophy + systemic / pathology microscopic / testes / atrophy
[41] = systemic / pathology microscopic / prostate / atrophy + systemic / pathology microscopic / testes / atrophy + systemic / pathology …
[42] = group: offspring, systemic / in life observation / body weight / offspring (pup) weight + systemic / in life observation / body weight / offspring (pup) …
[43] = group: parental, systemic / organ weight / liver / relative to body weight
[44] = systemic / clinical chemistry / cholesterol / cholesterol + systemic / in life observation / body weight / body weight gain + systemic / …
[45] = systemic / in life observation / body weight / body weight + systemic / in life observation / body weight / body weight gain + systemic / …

For `CCCCC(CC)COC(=O)CCCCC(=O)OCC(CC)CCCC` (stereo not drawn) [Di(2-ethylhexyl) adipate], the LEL [1] was 1250 mg/kg/day, the LOAEL [1] was 1250 mg/kg/day and the NEL [1] was 600 mg/kg/day. For the same compound, the NOAEL [1] was 600 mg/kg/day, the LEL [2, 24] was 625 mg/kg/day and the LOAEL [2, 24] was 625 mg/kg/day. It also gave an NEL [2, 25] of 315 mg/kg/day, an NOAEL [2, 25] of 315 mg/kg/day and an LEL [3, 24] of 465 mg/kg/day. The LOAEL [3, 25] was over 3750 mg/kg/day, the NEL [3, 25] was 240 mg/kg/day and the NOAEL [3, 25] was at least 3750 mg/kg/day. It also gave an LOAEL [4, 26] of 1800 mg/kg/day, an NOAEL [4, 26] of under 1800 mg/kg/day and an LEL [4, 27] of 1800 mg/kg/day. The NEL [4, 27] was under 1800 mg/kg/day, the LEL [5, 26] was 3750 mg/kg/day and the LOAEL [5, 26] was 7500 mg/kg/day. It also gave an NEL [5, 28] of 1880 mg/kg/day, an NOAEL [5, 28] of 3750 mg/kg/day and an LEL [6, 24] of 1250 mg/kg/day. The LOAEL [6, 24] was 2500 mg/kg/day, the NEL [6, 29] was 625 mg/kg/day and the NOAEL [6, 29] was 1250 mg/kg/day.

With `CCCN(CC)CC1COC2(CCC(C(C)(C)C)CC2)O1` (stereo not drawn) [Spiroxamine] the LOAEL [7, 30] was 59.3 mg/kg/day, the NEL [7, 30] was 4.5 mg/kg/day and the NOAEL [7, 30] was 36.7 mg/kg/day. It also gave an LEL ([7]; systemic / pathology microscopic / esophagus / acanthosis + systemic / pathology microscopic / esophagus / hyperkeratosis + systemic / …) of 36.7 mg/kg/day, an LOAEL ([8]; systemic / pathology microscopic / adrenal gland / hyperplasia) of 150 mg/kg/day and an LEL [8, 31] of 41 mg/kg/day. The NEL [8, 31] was under 41 mg/kg/day, the NOAEL ([8]; systemic / pathology microscopic / adrenal gland / hyperplasia + systemic / pathology microscopic / adrenal gland / adenoma + systemic / …) was 41 mg/kg/day and the LEL [9, 32] was 9.3 mg/kg/day. For the same compound, the NEL [9, 32] was 1.9 mg/kg/day, the NOAEL [9, 32] was 9.3 mg/kg/day and the LOAEL ([9]; systemic / pathology microscopic / esophagus / hyperkeratosis + systemic / pathology microscopic / esophagus / hyperplasia + systemic / …) was 54.9 mg/kg/day. For the same compound, the LEL [10, 33] was 80 mg/kg/day, the LOAEL [10, 33] was 80 mg/kg/day and the NEL [10, 33] was 20 mg/kg/day. The NOAEL [10, 33] was 20 mg/kg/day, the LOAEL [10, 34] was 5 mg/kg/day and the NOAEL [10, 34] was under 5 mg/kg/day. It also gave an LEL [10, 35] of 5 mg/kg/day, an NEL [10, 35] of under 5 mg/kg/day and an LEL [11] of 32.8 mg/kg/day. The LOAEL [11] was 32.8 mg/kg/day, the NEL [11] was 4.22 mg/kg/day and the NOAEL [11] was 4.22 mg/kg/day. The LEL [12, 36] was 80 mg/kg/day, the LOAEL [12, 36] was 80 mg/kg/day and the NEL [12, 36] was 20 mg/kg/day. The NOAEL [12, 36] was 20 mg/kg/day, the LEL [12, 37] was 80 mg/kg/day and the LOAEL [12, 37] was 80 mg/kg/day. The NEL [12, 37] was 20 mg/kg/day, the NOAEL [12, 37] was 20 mg/kg/day and the LEL [13] was 20 mg/kg/day. For the same compound, the LOAEL [13] was 20 mg/kg/day, the NEL [13] was 0.66 mg/kg/day and the NOAEL [13] was 0.66 mg/kg/day. For the same compound, the LOAEL ([14]; group: developmental, developmental / developmental malformation / bone / [other] + developmental / developmental malformation / mouth / jaw / cleft palate + …) was 100 mg/kg/day, the LEL [14, 38] was 10 mg/kg/day and the NEL [14, 38] was under 10 mg/kg/day. The NOAEL [14, 38] was 30 mg/kg/day, the LEL [14, 39] was 100 mg/kg/day and the LOAEL [14, 39] was 100 mg/kg/day. The NEL [14, 39] was 30 mg/kg/day, the NOAEL [14, 39] was 30 mg/kg/day and the LEL [15] was 25.8 mg/kg/day. For the same compound, the LOAEL [15] was 25.8 mg/kg/day, the NEL [15] was 2.48 mg/kg/day and the NOAEL [15] was 2.48 mg/kg/day.

`CC1OC(C)OC(C)OC(C)O1` (stereo not drawn) [Metaldehyde acetaldehyde tetramer] showed an LEL [16] of 135 mg/kg/day, an LOAEL [16] of 135 mg/kg/day and an NEL [16] of under 135 mg/kg/day. For the same compound, the NOAEL [16] was under 135 mg/kg/day, the LEL [17, 40] was 60 mg/kg/day and the LOAEL [17, 40] was 60 mg/kg/day. For the same compound, the NEL [17, 41] was 20 mg/kg/day, the NOAEL [17, 41] was 20 mg/kg/day and the LEL [18, 42] was 134 mg/kg/day. It also gave an LOAEL [18, 42] of 134 mg/kg/day, an NEL [18, 42] of 64.9 mg/kg/day and an NOAEL [18, 42] of 64.9 mg/kg/day. The LEL ([18]; group: parental, systemic / in life observation / body weight / body weight + systemic / in life observation / body weight / body weight gain) was 80.5 mg/kg/day, the NEL ([18]; group: parental, systemic / in life observation / body weight / body weight + systemic / in life observation / body weight / body weight gain + systemic / in…) was 4.03 mg/kg/day and the LOAEL [18, 43] was 134 mg/kg/day. The NOAEL [18, 43] was 64.9 mg/kg/day, the LEL [19] was 48.9 mg/kg/day and the LOAEL [19] was 48.9 mg/kg/day. The NEL [19] was 15.9 mg/kg/day, the NOAEL [19] was 15.9 mg/kg/day and the LEL [20] was 178 mg/kg/day. The LOAEL [20] was 178 mg/kg/day, the NEL [20] was 54 mg/kg/day and the NOAEL [20] was 54 mg/kg/day. For the same compound, the LOAEL [21, 44] was 44 mg/kg/day, the NOAEL [21, 44] was 2 mg/kg/day and the LEL [21, 24] was 3 mg/kg/day. For the same compound, the NEL [21, 24] was under 3 mg/kg/day, the LEL [22, 45] was 10 mg/kg/day and the NEL [22, 45] was under 10 mg/kg/day. For the same compound, the NOAEL ([22]; systemic / in life observation / mortality / mortality + systemic / clinical chemistry / alkaline phosphatase (alp/alk) / alkaline …) was 10 mg/kg/day and the LOAEL ([22]; systemic / in life observation / mortality / mortality + systemic / pathology microscopic / prostate / atrophy + systemic / pathology …) was 30 mg/kg/day.

`CCN(CC)CC(=O)Nc1c(C)cccc1C` [Lidocaine] gave an LEL [23] of 6 mg/kg/day, an LOAEL [23] of over 9 mg/kg/day and an NEL [23] of 3 mg/kg/day. For the same compound, the NOAEL [23] was at least 9 mg/kg/day.
